pIC50: −log10 of the molar value.
Biological target: USP1 (construct USP1 (I-785, GG670, 671AA)/UAF1 (I-677)-Flag) (Homo sapiens (Human), UniProt O94782, G670A/G671A)
Experiment: Ubiquitin-Rhodamine 110 assay for USP1 activity
Format: biochemical
Conditions: USP1/UAF1 25 pM, Ub-Rh110 25 nM, 30 min preincubation
Method: Example 53: Ubitquin-Rhodamine 110 Assay for USP1 Activity
The HTS assay was performed in a final volume of 20 μL in assay buffer containing 20 mM Tris-HCl (pH 8.0, (1M Tris-HCl, pH 8.0 solution; Corning 46-031-CM)), 2 mM CaCl2 (1M Calcium Chloride solution; Sigma #21114) 1 mM GSH (L-Glutathione reduced; Sigma #G4251), 0.01% Prionex ([…] filtered, Sigma #G-0411), and 0.01% Triton X-100. Stock compound solutions were stored at −20° C. as 10 mM in DMSO. Up to 1 month prior to the assay, 2 mM test compounds were pre-dispensed into assay plates (Black, low volume; Corning #3820) and frozen at −20° C. Prestamped assay plates were allowed to come to room temperature on the day of the assay. For the screen, 100 nL of 2 mM was pre-dispensed for a final screening concentration of […] (DMSO(fc)=0.5%). The final concentration of the enzyme (USP1, construct USP1 (I-785, GG670, 671AA)/UAF1 (I-677)-Flag; Viva) in the assay was 100 pM. Final substrate (Ub-Rh110; Ubiquitin-Rhodamine 110, R&D Systems #U-555) concentration was 25 nM with [Ub-Rh110]<<Km. […] Plates were incubated stacked for 45 minutes at room temperature before fluorescence was read on the Envision (Excitation at 485 nm and Emission at 535 nm; Perkin Elmer) or on the PheraSTAR (Excitation at 485 nm and Emission at 535 nm; BMG Labtech)
Nanoliter quantities of either an 8-point or 10-point, 3-fold serial dilution in DMSO was pre-dispensed into assay plates (Perkin Elmer, ProxiPlate-384 F Plus, #6008269) for a final test concentration range of either 25 μM to 11 nM or 25 μM to 1.3 nM, respectively. The final concentration of the enzyme (USP1, construct USP1 (I-785, GG670, 671AA)/UAF1 (I-677)-Flag; Viva) in the assay was 25 pM. Final substrate (Ub-Rh110; Ubiquitin-Rhodamine 110, R&D Systems #U-555) concentration was 25 nM with [Ub-Rh110]<<Km. […] Plates were incubated stacked for 20 minutes at room temperature before 5 μL of stop solution (final concentration of 10 mM citric acid in assay buffer (Sigma, #251275-500G)). Fluorescence was read on the Envision (Excitation at 485 nm and Emission at 535 nm; Perkin Elmer) or on the PheraSTAR (Excitation at 485 nm and Emission at 535 nm; BMG Labtech).
For both assay formats data were reported as percent inhibition compared with control wells based on the following equation: % inh=[1−((FLU−AveLow)/(AveHigh−AveLow))]×100 where FLU=measured Fluorescence, AveLow=average Fluorescence of no enzyme control (n=16), and AveHigh=average Fluorescence of DMSO control (n=16). IC50 values were determined by curve fitting of the standard 4 parameter logistic fitting algorithm included in the Activity Base software package: IDBS XE Designer Model205. Data is fitted using the Levenburg Marquardt algorithm.

USP1 (construct USP1 (I-785, GG670, 671AA)/UAF1 (I-677)-Flag), sequence (O94782 whole entry G670A/G671A): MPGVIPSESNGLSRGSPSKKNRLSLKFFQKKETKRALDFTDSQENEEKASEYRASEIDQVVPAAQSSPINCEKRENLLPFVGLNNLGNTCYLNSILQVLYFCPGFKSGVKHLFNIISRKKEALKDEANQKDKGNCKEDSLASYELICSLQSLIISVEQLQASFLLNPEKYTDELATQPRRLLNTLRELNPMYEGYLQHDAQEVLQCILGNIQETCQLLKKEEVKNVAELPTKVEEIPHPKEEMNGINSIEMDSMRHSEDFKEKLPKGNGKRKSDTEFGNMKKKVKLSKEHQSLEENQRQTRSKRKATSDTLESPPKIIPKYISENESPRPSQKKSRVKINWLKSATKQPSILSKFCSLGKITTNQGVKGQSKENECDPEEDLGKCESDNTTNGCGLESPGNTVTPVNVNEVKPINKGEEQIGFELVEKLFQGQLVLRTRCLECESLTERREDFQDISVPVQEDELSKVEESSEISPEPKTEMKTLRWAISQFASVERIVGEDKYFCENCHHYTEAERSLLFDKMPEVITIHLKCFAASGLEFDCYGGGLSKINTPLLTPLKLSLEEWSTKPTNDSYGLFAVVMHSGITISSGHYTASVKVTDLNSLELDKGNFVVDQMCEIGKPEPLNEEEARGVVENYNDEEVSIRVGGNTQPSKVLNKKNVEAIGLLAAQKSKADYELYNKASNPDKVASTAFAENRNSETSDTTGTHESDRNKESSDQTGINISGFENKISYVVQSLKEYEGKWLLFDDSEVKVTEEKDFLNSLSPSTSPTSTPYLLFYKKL
USP1 (construct USP1 (I-785, GG670, 671AA)/UAF1 (I-677)-Flag), sequence (Q8TAF3 whole entry partner): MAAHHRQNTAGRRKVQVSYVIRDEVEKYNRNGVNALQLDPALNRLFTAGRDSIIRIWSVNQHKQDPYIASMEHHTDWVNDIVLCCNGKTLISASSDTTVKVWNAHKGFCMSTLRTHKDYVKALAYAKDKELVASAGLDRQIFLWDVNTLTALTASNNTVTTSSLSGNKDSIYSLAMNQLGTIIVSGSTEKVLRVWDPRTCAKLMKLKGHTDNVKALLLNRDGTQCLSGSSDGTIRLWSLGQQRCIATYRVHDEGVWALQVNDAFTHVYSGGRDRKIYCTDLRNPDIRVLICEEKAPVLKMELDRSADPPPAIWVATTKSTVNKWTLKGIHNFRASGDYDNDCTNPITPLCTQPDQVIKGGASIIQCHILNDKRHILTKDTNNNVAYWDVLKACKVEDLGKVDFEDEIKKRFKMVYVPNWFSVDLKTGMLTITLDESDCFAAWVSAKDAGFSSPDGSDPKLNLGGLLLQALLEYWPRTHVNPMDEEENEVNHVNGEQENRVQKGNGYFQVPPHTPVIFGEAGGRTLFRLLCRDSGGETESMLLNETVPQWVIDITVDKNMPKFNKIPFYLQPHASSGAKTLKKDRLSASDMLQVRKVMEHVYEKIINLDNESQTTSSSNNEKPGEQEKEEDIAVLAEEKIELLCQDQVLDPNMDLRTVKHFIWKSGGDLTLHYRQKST

SMILES	pIC50
Cn1cc(C(F)(F)F)nc1-c1ccc(Cn2c(=O)[nH]c3cnc(-c4cccc5ccn(C)c45)nc32)cc1 [Compound I-45, 2-(1-methyl-1H-indol-7-yl)-9-(4-(1-methyl-4-(trifluoromethyl)-1H-imidazol-2-yl)benzyl)-7,9-dihydro-8H-purin-8-one]	> 7.30
CC(C)c1ncccc1-c1ncc2[nH]c(=O)n(Cc3ccc(-c4ccn(C)n4)cc3)c2n1 [Compound I-46, 2-(2-isopropylpyridin-3-yl)-9-(4-(1-methyl-1H-pyrazol-3-yl)benzyl)-7,9-dihydro-8H-purin-8-one]	5.70 to 6.70
Cc1cn(C)nc1-c1ccc(Cn2c(=O)[nH]c3cnc(-c4cccnc4C(C)C)nc32)cc1 [Compound I-47, 9-(4-(1,4-dimethyl-1H-pyrazol-3-yl)benzyl)-2-(2-isopropylpyridin-3-yl)-7,9-dihydro-8H-purin-8-one]	5.70 to 6.70
Cn1cc(C(F)(F)F)nc1-c1ccc(Cn2c(=O)n(C)c3cnc(-c4cccnc4OC(F)F)nc32)cc1 [Compound I-48, 2-(2-(difluoromethoxy)pyridin-3-yl)-7-methyl-9-(4-(1-methyl-4-(trifluoromethyl)-1H-imidazol-2-yl)benzyl)-7,9-dihydro-8H-purin-8-one]	> 7.30
Cn1cc(C(F)(F)F)nc1-c1ccc(Cn2c(=O)n(C)c3cnc(-c4ccccc4OC(F)(F)F)nc32)cc1 [Compound I-49, 7-methyl-9-(4-(1-methyl-4-(trifluoromethyl)-1H-imidazol-2-yl)benzyl)-2-(2-(trifluoromethoxy)phenyl)-7,9-dihydro-8H-purin-8-one]	> 7.30
Cn1cc(C(F)(F)F)nc1-c1ccc(Cn2c(=O)n(C)c3cnc(-c4cccnc4OCC(F)(F)F)nc32)cc1 [Compound I-50, 7-methyl-9-(4-(1-methyl-4-(trifluoromethyl)-1H-imidazol-2-yl)benzyl)-2-(2-(2,2,2-trifluoroethoxy)pyridin-3-yl)-7,9-dihydro-8H-purin-8-one]	> 7.30
CC(C)c1ncccc1-c1ncc2[nH]c(=O)n(C3(c4ccc(-c5nc(C(F)(F)F)cn5C)cc4)CC3)c2n1 [Compound I-51, 2-(2-isopropylpyridin-3-yl)-9-(1-(4-(1-methyl-4-(trifluoromethyl)-1H-imidazol-2-yl)phenyl)cyclopropyl)-7,9-dihydro-8H-purin-8-one]	> 7.30
Cc1cc(Cl)nn1-c1ccc(Cn2c(=O)[nH]c3cnc(-c4cccnc4C(C)C)nc32)cc1 [Compound I-52, 9-(4-(3-chloro-5-methyl-1H-pyrazol-1-yl)benzyl)-2-(2-isopropylpyridin-3-yl)-7,9-dihydro-8H-purin-8-one]	> 7.30
Cc1cc(Cl)n(-c2ccc(Cn3c(=O)[nH]c4cnc(-c5cccnc5C(C)C)nc43)cc2)n1 [Compound I-53, 9-(4-(5-chloro-3-methyl-1H-pyrazol-1-yl)benzyl)-2-(2-isopropylpyridin-3-yl)-7,9-dihydro-8H-purin-8-one]	> 7.30
Cc1cccn1-c1ccc(Cn2c(=O)[nH]c3cnc(-c4cccnc4C(C)C)nc32)cc1 [Compound I-54, 2-(2-isopropylpyridin-3-yl)-9-(4-(2-methyl-1H-pyrrol-1-yl)benzyl)-7,9-dihydro-8H-purin-8-one]	5.70 to 6.70
CO[C@H](C)c1ccccc1-c1ncc2[nH]c(=O)n(Cc3ccc(-c4nc(C(F)(F)F)cn4C)cc3)c2n1 [Compound I-55, (R)-2-(2-(1-methoxyethyl)phenyl)-9-(4-(1-methyl-4-(trifluoromethyl)-1H-imidazol-2-yl)benzyl)-7,9-dihydro-8H-purin-8-one]	> 7.30
CO[C@@H](C)c1ccccc1-c1ncc2[nH]c(=O)n(Cc3ccc(-c4nc(C(F)(F)F)cn4C)cc3)c2n1 [Compound I-56, (S)-2-(2-(1-methoxyethyl)phenyl)-9-(4-(1-methyl-4-(trifluoromethyl)-1H-imidazol-2-yl)benzyl)-7,9-dihydro-8H-purin-8-one]	> 7.30
Cn1cc(C(F)(F)F)nc1-c1ccc(Cn2c(=O)[nH]c3cnc(-c4cccnc4F)nc32)cc1 [Compound I-57, 2-(2-fluoropyridin-3-yl)-9-(4-(1-methyl-4-(trifluoromethyl)-1H-imidazol-2-yl)benzyl)-7,9-dihydro-8H-purin-8-one]	5.70 to 6.70
Cc1cc(C(F)F)nn1-c1ccc(Cn2c(=O)[nH]c3cnc(-c4cccnc4C(C)C)nc32)cc1 [Compound I-58, 9-(4-(3-(difluoromethyl)-5-methyl-1H-pyrazol-1-yl)benzyl)-2-(2-isopropylpyridin-3-yl)-7,9-dihydro-8H-purin-8-one]	> 7.30
CC(C)c1ncccc1-c1ncc2[nH]c(=O)n(Cc3ccc(-n4ccc(F)n4)cc3)c2n1 [Compound I-59, 9-(4-(3-fluoro-1H-pyrazol-1-yl)benzyl)-2-(2-isopropylpyridin-3-yl)-7,9-dihydro-8H-purin-8-one]	6.70 to 7.30
COc1cc(C(F)(F)F)nn1-c1ccc(Cn2c(=O)[nH]c3cnc(-c4cccnc4C(C)C)nc32)cc1 [Compound I-60, 2-(2-isopropylpyridin-3-yl)-9-(4-(5-methoxy-3-(trifluoromethyl)-1H-pyrazol-1-yl)benzyl)-7,9-dihydro-8H-purin-8-one]	> 7.30
CCc1ncccc1-c1ncc2c(n1)n(Cc1ccc(-c3nc(C(F)(F)F)cn3C)cc1)c(=O)n2C [Compound I-61, 2-(2-ethylpyridin-3-yl)-7-methyl-9-(4-(1-methyl-4-(trifluoromethyl)-1H-imidazol-2-yl)benzyl)-7,9-dihydro-8H-purin-8-one]	6.70 to 7.30
Cc1ncccc1-c1ncc2c(n1)n(Cc1ccc(-c3nc(C(F)(F)F)cn3C)cc1)c(=O)n2C [Compound I-62, 7-methyl-9-(4-(1-methyl-4-(trifluoromethyl)-1H-imidazol-2-yl)benzyl)-2-(2-methylpyridin-3-yl)-7,9-dihydro-8H-purin-8-one]	5.70 to 6.70
CC(C)c1ccccc1-c1ncc2c(n1)n(Cc1ccc(-c3nc(C(F)(F)F)cn3C)cc1)c(=O)n2C [Compound I-63, 2-(2-isopropylphenyl)-7-methyl-9-(4-(1-methyl-4-(trifluoromethyl)-1H-imidazol-2-yl)benzyl)-7,9-dihydro-8H-purin-8-one]	> 7.30
Cn1cc(C(F)(F)F)nc1-c1ccc(Cn2c(=O)[nH]c3cnc(-c4cccnc4C(F)F)nc32)cc1 [Compound I-64, 2-(2-(difluoromethyl)pyridin-3-yl)-9-(4-(1-methyl-4-(trifluoromethyl)-1H-imidazol-2-yl)benzyl)-7,9-dihydro-8H-purin-8-one]	6.70 to 7.30
CC(C)c1c(F)cccc1-c1ncc2c(n1)n(Cc1ccc(-c3nc(C(F)(F)F)cn3C)cc1)c(=O)n2C [Compound I-65, 2-(3-fluoro-2-isopropylphenyl)-7-methyl-9-(4-(1-methyl-4-(trifluoromethyl)-1H-imidazol-2-yl)benzyl)-7,9-dihydro-8H-purin-8-one]	> 7.30
Cc1nc(F)ccc1-c1ncc2c(n1)n(Cc1ccc(-c3nc(C(F)(F)F)cn3C)cc1)c(=O)n2C [Compound I-66, 2-(6-fluoro-2-methylpyridin-3-yl)-7-methyl-9-(4-(1-methyl-4-(trifluoromethyl)-1H-imidazol-2-yl)benzyl)-7,9-dihydro-8H-purin-8-one]	5.70 to 6.70
CC(C)c1ncc(F)cc1-c1ncc2[nH]c(=O)n(Cc3ccc(-c4nc(C(F)(F)F)cn4C)cc3)c2n1 [Compound I-67, 2-(5-fluoro-2-isopropylpyridin-3-yl)-9-(4-(1-methyl-4-(trifluoromethyl)-1H-imidazol-2-yl)benzyl)-7,9-dihydro-8H-purin-8-one]	> 7.30
Cc1cc(N2CCC2)nn1-c1ccc(Cn2c(=O)[nH]c3cnc(-c4cccnc4C(C)C)nc32)cc1 [Compound I-68, 9-(4-(3-(azetidin-1-yl)-5-methyl-1H-pyrazol-1-yl)benzyl)-2-(2-isopropylpyridin-3-yl)-7,9-dihydro-8H-purin-8-one]	6.70 to 7.30

Reference: patent US10189841B2, “Purinones as ubiquitin-specific protease 1 inhibitors” (Forma Therapeutics, Inc., priority 2015, dated 2019)
